Experimental data published in ChEMBL document CHEMBL2440042, “Anti-proliferative activity of hydnocarpin, a natural lignan, is associated with the suppression of Wnt/β-catenin signaling pathway in colon cancer cells” (Bioorg Med Chem Lett, 2013).
The source made the active and inactive calls. No cut-off for these calls is given here.

Experiments:
SW480 [1] = assay: Inhibition of Wnt/beta-catenin signaling pathway in human SW480 cells assessed as beta-catenin protein expression at 20 uM after 12 hrs by Western blotting analysis relative to vehicle-treated control
SW480 [2] = assay: Inhibition of Wnt/beta-catenin signaling pathway in human SW480 cells assessed as beta-catenin protein expression at 5 uM after 12 hrs by Western blotting analysis relative to vehicle-treated control
SW480 [3] = assay: Effect on total beta-catenin protein level in human SW480 cells at 5 to 20 uM after 12 to 24 hrs by Western blotting analysis relative to vehicle-treated control; type: functional, cell-based
HEK293 = assay: Inhibition of Wnt/beta-catenin signaling pathway in human HEK293 cells after 24 hrs by dual luciferase reporter gene assay relative to vehicle-treated control; type: cell-based
SW480 [4] = assay: Inhibition of Wnt/beta-catenin signaling pathway in human SW480 cells after 24 hrs by TOPflash luciferase reporter gene assay relative to vehicle-treated control; type: cell-based
SW480 [5] = assay: Inhibition of Wnt/beta-catenin signaling pathway in human SW480 cells after 24 hrs by FOPflash luciferase reporter gene assay relative to vehicle-treated control; type: cell-based
SW480 [6] = assay: Inhibition of Wnt/beta-catenin signaling pathway in human SW480 cells assessed as increase in phosphorylation of beta-catenin at Ser45 after 12 hrs by Western blotting analysis relative to vehicle-treated control; type: cell-based
SW480 [7] = assay: Inhibition of Wnt/beta-catenin signaling pathway in human SW480 cells assessed as increase in phosphorylation of beta-catenin at Ser45 after 24 hrs by Western blotting analysis relative to vehicle-treated control; type: cell-based
SW480 [8] = assay: Inhibition of Wnt/beta-catenin signaling pathway in human SW480 cells assessed as dvl1 protein expression at 20 uM after 12 hrs by Western blotting analysis relative to vehicle-treated control
SW480 [9] = assay: Inhibition of Wnt/beta-catenin signaling pathway in human SW480 cells assessed as dvl2 protein expression at 5 uM after 12 hrs by Western blotting analysis relative to vehicle-treated control
SW480 [10] = assay: Inhibition of Wnt/beta-catenin signaling pathway in human SW480 cells assessed as dvl3 protein expression at 5 uM after 12 hrs by Western blotting analysis relative to vehicle-treated control
SW480 [11] = assay: Inhibition of Wnt/beta-catenin signaling pathway in human SW480 cells assessed as dvl3 protein expression at 10 uM after 12 hrs by Western blotting analysis relative to vehicle-treated control
SW480 [12] = assay: Inhibition of Wnt/beta-catenin signaling pathway in human SW480 cells assessed as GSK3-beta protein expression at 5 uM after 12 hrs by Western blotting analysis relative to vehicle-treated control
SW480 [13] = assay: Inhibition of Wnt/beta-catenin signaling pathway in human SW480 cells assessed as GSK3-beta protein expression at 20 uM after 12 hrs by Western blotting analysis relative to vehicle-treated control
SW480 [14] = assay: Inhibition of Wnt/beta-catenin signaling pathway in human SW480 cells assessed as beta-catenin protein expression at 5 uM after 24 hrs by Immunoblotting analysis relative to vehicle-treated control
SW480 [15] = assay: Growth inhibition in human SW480 cells at 1 to 20 uM after 72 hrs by SRB assay in presence of axin1 siRNA; type: functional, cell-based
[16] = target: Axin1/beta-catenin (Homo sapiens) (UniProt P35222+O15169); assay: Increase in axin1-beta-catenin interaction in human SW480 cells at 5 to 10 uM after 24 hrs by immunoprecipitation; type: cell-based
SW480 [17] = assay: Inhibition of Wnt/beta-catenin signaling pathway in human SW480 cells assessed as Axin2 protein expression at 5 uM after 24 hrs by Immunoblotting analysis relative to vehicle-treated control
SW480 [18] = assay: Inhibition of Wnt/beta-catenin signaling pathway in human SW480 cells assessed as CK1-alpha protein expression at 20 uM after 12 hrs by Western blotting analysis relative to vehicle-treated control
SW480 [19] = assay: Inhibition of Wnt/beta-catenin signaling pathway in human SW480 cells assessed as Axin1 protein expression at 5 uM after 12 hrs by Western blotting analysis relative to vehicle-treated control
SW480 [20] = assay: Inhibition of Wnt/beta-catenin signaling pathway in human SW480 cells assessed as Axin1 protein expression at 20 uM after 12 hrs by Western blotting analysis relative to vehicle-treated control
SW480 [21] = assay: Inhibition of Wnt/beta-catenin signaling pathway in human SW480 cells assessed as Axin2 protein expression at 20 uM after 12 hrs by Western blotting analysis relative to vehicle-treated control
SW480 [22] = assay: Inhibition of Wnt/beta-catenin signaling pathway in human SW480 cells assessed as beta-catenin protein expression at 5 uM after 24 hrs by Western blotting analysis relative to vehicle-treated control
SW480 [23] = assay: Inhibition of Wnt/beta-catenin signaling pathway in human SW480 cells assessed as beta-catenin protein expression at 10 uM after 24 hrs by Western blotting analysis relative to vehicle-treated control
SW480 [24] = assay: Inhibition of Wnt/beta-catenin signaling pathway in human SW480 cells assessed as beta-catenin protein expression at 20 uM after 24 hrs by Western blotting analysis relative to vehicle-treated control
SW480 [25] = assay: Inhibition of Wnt/beta-catenin signaling pathway in human SW480 cells assessed as phosphorylated (S45) beta-catenin protein expression at 5 uM after 24 hrs by Western blotting analysis relative to vehicle-treated control
SW480 [26] = assay: Inhibition of Wnt/beta-catenin signaling pathway in human SW480 cells assessed as dvl1 protein expression at 20 uM after 24 hrs by Western blotting analysis relative to vehicle-treated control
SW480 [27] = assay: Inhibition of Wnt/beta-catenin signaling pathway in human SW480 cells assessed as dvl2 protein expression at 5 uM after 24 hrs by Western blotting analysis relative to vehicle-treated control
SW480 [28] = assay: Inhibition of Wnt/beta-catenin signaling pathway in human SW480 cells assessed as dvl2 protein expression at 10 uM after 24 hrs by Western blotting analysis relative to vehicle-treated control
SW480 [29] = assay: Inhibition of Wnt/beta-catenin signaling pathway in human SW480 cells assessed as dvl2 protein expression at 20 uM after 24 hrs by Western blotting analysis relative to vehicle-treated control
SW480 [30] = assay: Inhibition of Wnt/beta-catenin signaling pathway in human SW480 cells assessed as dvl3 protein expression at 20 uM after 24 hrs by Western blotting analysis relative to vehicle-treated control
SW480 [31] = assay: Inhibition of Wnt/beta-catenin signaling pathway in human SW480 cells assessed as GSK3-beta protein expression at 5 uM after 24 hrs by Western blotting analysis relative to vehicle-treated control
SW480 [32] = assay: Inhibition of Wnt/beta-catenin signaling pathway in human SW480 cells assessed as CK1-alpha protein expression at 10 uM after 24 hrs by Western blotting analysis relative to vehicle-treated control
SW480 [33] = assay: Inhibition of Wnt/beta-catenin signaling pathway in human SW480 cells assessed as Axin2 protein expression at 10 uM after 24 hrs by Western blotting analysis relative to vehicle-treated control
SW480 [34] = assay: Inhibition of Wnt/beta-catenin signaling pathway in human SW480 cells assessed as Axin1 protein expression at 10 uM after 24 hrs by Immunoblotting analysis relative to vehicle-treated control

- Activity [16]: Active
Structure (SMILES): COc1cc([C@H]2Oc3ccc(-c4cc(=O)c5c(O)cc(O)cc5o4)cc3O[C@@H]2CO)ccc1O (relative stereo)
- fold change (FC) (SW480 [1]): 0.6
- fold change (FC) (SW480 [2]): 0.8
- Activity (SW480 [3]): inactive
- inhibition (HEK293): Dose-dependent effect
- inhibition (SW480 [4]): Dose-dependent effect
- inhibition (SW480 [5]): inactive
- inhibition (SW480 [6]): Dose-dependent effect
- inhibition (SW480 [7]): Dose-dependent effect
- fold change (FC) (SW480 [8]): 1.1
- fold change (FC) (SW480 [9]): 1.2
- fold change (FC) (SW480 [10]): 1
- fold change (FC) (SW480 [11]): 1
- fold change (FC) (SW480 [12]): 0.8
- fold change (FC) (SW480 [13]): 0.9
- fold change (FC) (SW480 [14]): 0.8
- growth inhibition (GI) (SW480 [15]): inactive
- fold change (FC) (SW480 [17]): 1
- fold change (FC) (SW480 [18]): 1.2
- fold change (FC) (SW480 [19]): 1.9
- fold change (FC) (SW480 [20]): 2.7
- fold change (FC) (SW480 [21]): 6.5
- fold change (FC) (SW480 [22]): 0.8
- fold change (FC) (SW480 [23]): 0.8
- fold change (FC) (SW480 [24]): 0.7
- fold change (FC) (SW480 [25]): 1.4
- fold change (FC) (SW480 [26]): 1.2
- fold change (FC) (SW480 [27]): 1.2
- fold change (FC) (SW480 [28]): 1.2
- fold change (FC) (SW480 [29]): 1.2
- fold change (FC) (SW480 [30]): 1.1
- fold change (FC) (SW480 [31]): 1.1
- fold change (FC) (SW480 [32]): 1.2
- fold change (FC) (SW480 [33]): 3.2
- fold change (FC) (SW480 [34]): 1.5
